This passage reports % of control and % of inhibition results from ChEMBL document CHEMBL5465560, “Selectivity Literature for EUbOPEN Chemogenomic Library” (2024).

For experiment [1], the target named is Cyclin-dependent kinase 3 (Homo sapiens) (UniProt Q00526). The experiment is described as follows: Selectivity interaction (KinomeScan (DiscoverX)) EUB0000607a CDK3. Particulars: at 10 µM.
In experiment [2] the target is Ribosomal protein S6 kinase alpha-6 (Homo sapiens, UniProt Q9UK32). The experiment is described as follows: Selectivity interaction (KinomeScan (DiscoverX)) EUB0000607a RPS6KA6. As to conditions: at 10 µM.
Chain of Ribosomal protein S6 kinase alpha-6 (Q9UK32 whole entry): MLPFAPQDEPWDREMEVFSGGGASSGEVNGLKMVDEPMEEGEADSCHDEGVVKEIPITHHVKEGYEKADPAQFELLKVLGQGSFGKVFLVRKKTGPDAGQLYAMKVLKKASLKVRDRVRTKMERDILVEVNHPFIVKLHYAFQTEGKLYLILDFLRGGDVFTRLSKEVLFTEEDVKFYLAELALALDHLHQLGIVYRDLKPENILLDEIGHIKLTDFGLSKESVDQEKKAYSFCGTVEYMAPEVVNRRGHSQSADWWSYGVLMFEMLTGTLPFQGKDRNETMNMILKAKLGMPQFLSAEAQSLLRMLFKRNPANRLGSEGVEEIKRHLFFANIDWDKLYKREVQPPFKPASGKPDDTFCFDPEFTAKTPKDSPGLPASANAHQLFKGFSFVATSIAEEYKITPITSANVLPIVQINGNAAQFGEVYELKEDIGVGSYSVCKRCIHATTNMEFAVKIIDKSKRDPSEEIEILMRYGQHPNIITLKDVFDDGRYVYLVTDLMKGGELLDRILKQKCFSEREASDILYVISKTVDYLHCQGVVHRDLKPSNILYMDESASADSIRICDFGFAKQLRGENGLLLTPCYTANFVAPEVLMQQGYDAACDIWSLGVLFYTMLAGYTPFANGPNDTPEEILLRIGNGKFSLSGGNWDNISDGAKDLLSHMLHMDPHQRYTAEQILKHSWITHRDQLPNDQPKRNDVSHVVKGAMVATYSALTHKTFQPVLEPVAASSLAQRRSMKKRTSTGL
The target in experiment [3] is Serine/threonine-protein kinase Nek6 (Homo sapiens) (UniProt Q9HC98). In words: Selectivity interaction (ActivX KiNativ screen (ex vivo kinase selectivity in human PBMCs)) EUB0001619a NEK6. It counts as cell-based. Particulars: PBMC, at 1 µM.
Chain of Serine/threonine-protein kinase Nek6 (Homo sapiens) (Q9HC98 whole entry): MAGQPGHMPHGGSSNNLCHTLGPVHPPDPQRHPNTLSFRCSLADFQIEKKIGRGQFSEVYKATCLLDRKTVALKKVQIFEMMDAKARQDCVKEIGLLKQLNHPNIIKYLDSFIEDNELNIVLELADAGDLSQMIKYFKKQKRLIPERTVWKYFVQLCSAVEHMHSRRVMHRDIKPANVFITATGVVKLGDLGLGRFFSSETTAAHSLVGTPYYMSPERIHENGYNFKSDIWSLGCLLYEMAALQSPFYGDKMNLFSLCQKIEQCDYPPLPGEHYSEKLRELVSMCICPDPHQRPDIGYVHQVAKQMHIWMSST
The target of experiment [4] is Tyrosine-protein kinase BTK (Homo sapiens, UniProt Q06187). In words: Selectivity interaction (ActivX KiNativ screen (kinase selectivity in THP-1 cell lysates)) EUB0000639a BTK. It counts as subcellular. Particulars: lysate, at 1 µM.
Chain of Tyrosine-protein kinase BTK (Q06187 whole entry): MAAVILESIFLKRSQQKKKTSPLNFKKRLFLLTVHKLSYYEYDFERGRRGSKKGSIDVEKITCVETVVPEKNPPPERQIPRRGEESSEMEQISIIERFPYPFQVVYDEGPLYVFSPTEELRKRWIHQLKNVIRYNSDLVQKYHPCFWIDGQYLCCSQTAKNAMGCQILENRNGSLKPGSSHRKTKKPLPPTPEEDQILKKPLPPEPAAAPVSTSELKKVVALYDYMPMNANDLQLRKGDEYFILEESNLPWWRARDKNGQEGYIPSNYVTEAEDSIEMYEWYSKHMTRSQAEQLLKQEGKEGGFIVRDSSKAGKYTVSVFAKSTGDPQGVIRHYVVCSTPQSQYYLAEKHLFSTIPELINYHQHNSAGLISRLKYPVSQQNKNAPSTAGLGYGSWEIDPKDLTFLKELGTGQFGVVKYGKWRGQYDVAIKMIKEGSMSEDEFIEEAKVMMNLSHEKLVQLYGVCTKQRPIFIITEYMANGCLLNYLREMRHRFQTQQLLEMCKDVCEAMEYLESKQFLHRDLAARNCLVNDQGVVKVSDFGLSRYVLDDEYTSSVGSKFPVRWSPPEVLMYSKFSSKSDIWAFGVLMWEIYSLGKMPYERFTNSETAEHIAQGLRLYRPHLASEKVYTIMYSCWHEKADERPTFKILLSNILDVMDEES
The target in the next experiment is Misshapen-like kinase 1 (Homo sapiens, UniProt Q8N4C8). The experiment is described as follows: Selectivity interaction (Kinase panel (Invitrogen)) EUB0000639a MINK1. As to conditions: at 200 nM.
Chain of Misshapen-like kinase 1 (Q8N4C8 whole entry, looked up): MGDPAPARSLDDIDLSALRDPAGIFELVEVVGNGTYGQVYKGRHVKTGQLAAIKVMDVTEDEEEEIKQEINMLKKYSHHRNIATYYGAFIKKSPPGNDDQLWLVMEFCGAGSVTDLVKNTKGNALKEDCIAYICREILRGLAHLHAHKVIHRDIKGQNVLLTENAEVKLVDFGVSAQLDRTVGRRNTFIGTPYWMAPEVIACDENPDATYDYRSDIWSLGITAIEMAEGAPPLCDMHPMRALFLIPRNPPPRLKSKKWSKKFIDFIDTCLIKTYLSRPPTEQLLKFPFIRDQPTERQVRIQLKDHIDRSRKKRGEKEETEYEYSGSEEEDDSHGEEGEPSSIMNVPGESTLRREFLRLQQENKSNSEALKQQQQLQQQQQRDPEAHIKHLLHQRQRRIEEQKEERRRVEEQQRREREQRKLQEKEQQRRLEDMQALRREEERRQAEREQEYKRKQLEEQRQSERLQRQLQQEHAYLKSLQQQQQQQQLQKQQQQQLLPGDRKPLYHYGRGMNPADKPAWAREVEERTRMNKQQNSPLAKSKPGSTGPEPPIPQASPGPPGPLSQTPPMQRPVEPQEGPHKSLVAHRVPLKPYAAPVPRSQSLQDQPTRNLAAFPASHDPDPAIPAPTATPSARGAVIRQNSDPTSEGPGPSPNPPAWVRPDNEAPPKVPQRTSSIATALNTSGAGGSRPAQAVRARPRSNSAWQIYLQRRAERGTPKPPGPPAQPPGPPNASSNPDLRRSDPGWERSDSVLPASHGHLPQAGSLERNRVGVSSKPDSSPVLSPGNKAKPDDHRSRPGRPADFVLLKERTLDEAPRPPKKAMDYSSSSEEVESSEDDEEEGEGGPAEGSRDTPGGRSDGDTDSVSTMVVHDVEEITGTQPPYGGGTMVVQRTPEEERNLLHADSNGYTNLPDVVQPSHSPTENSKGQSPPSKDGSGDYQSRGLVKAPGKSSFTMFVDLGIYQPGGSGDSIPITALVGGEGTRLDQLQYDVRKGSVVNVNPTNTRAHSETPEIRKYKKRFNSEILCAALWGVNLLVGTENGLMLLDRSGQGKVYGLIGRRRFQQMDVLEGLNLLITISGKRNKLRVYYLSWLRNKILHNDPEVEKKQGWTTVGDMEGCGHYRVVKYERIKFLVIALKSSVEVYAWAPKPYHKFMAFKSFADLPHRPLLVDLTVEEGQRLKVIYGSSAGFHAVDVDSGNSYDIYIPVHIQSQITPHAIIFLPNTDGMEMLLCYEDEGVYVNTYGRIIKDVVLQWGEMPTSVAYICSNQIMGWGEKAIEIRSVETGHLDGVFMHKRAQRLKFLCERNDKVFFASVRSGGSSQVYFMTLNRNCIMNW
The target of experiment [5] is Platelet-derived growth factor receptor alpha (Homo sapiens, UniProt P16234). The experiment is described as follows: Selectivity interaction (Kinase screening (Upstate/Millipore)) EUB0000604a PDGFRA.
Chain of Platelet-derived growth factor receptor alpha (P16234 whole entry): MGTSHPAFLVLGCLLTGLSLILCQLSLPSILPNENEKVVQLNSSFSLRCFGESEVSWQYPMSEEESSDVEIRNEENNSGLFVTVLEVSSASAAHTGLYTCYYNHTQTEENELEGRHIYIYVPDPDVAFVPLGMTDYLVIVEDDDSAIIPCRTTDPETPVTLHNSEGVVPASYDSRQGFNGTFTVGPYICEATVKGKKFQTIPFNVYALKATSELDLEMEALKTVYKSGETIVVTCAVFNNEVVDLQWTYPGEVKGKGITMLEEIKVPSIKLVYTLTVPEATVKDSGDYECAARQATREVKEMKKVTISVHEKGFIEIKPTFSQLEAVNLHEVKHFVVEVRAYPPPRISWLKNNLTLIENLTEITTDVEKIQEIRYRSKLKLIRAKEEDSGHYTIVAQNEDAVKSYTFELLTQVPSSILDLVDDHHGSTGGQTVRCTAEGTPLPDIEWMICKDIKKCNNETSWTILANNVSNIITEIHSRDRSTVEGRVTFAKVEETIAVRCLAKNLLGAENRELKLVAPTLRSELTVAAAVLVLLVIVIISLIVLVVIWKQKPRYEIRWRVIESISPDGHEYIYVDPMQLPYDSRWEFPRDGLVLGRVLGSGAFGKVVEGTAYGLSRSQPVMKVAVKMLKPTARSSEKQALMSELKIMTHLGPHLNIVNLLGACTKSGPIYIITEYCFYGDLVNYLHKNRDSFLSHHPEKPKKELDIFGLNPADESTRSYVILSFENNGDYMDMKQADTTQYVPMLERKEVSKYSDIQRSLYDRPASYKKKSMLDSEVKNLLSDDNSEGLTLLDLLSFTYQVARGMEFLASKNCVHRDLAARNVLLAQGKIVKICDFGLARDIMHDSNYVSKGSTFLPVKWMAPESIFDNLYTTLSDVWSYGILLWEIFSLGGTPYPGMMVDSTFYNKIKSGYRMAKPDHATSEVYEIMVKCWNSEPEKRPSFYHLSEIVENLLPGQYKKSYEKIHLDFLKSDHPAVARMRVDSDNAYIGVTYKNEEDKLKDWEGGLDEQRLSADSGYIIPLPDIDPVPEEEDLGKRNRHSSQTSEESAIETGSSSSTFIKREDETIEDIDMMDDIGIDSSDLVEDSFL
Experiment [6] addresses T1, Serine/threonine-protein kinase ULK1 (Homo sapiens) (UniProt O75385).
T1 sequence (whole entry): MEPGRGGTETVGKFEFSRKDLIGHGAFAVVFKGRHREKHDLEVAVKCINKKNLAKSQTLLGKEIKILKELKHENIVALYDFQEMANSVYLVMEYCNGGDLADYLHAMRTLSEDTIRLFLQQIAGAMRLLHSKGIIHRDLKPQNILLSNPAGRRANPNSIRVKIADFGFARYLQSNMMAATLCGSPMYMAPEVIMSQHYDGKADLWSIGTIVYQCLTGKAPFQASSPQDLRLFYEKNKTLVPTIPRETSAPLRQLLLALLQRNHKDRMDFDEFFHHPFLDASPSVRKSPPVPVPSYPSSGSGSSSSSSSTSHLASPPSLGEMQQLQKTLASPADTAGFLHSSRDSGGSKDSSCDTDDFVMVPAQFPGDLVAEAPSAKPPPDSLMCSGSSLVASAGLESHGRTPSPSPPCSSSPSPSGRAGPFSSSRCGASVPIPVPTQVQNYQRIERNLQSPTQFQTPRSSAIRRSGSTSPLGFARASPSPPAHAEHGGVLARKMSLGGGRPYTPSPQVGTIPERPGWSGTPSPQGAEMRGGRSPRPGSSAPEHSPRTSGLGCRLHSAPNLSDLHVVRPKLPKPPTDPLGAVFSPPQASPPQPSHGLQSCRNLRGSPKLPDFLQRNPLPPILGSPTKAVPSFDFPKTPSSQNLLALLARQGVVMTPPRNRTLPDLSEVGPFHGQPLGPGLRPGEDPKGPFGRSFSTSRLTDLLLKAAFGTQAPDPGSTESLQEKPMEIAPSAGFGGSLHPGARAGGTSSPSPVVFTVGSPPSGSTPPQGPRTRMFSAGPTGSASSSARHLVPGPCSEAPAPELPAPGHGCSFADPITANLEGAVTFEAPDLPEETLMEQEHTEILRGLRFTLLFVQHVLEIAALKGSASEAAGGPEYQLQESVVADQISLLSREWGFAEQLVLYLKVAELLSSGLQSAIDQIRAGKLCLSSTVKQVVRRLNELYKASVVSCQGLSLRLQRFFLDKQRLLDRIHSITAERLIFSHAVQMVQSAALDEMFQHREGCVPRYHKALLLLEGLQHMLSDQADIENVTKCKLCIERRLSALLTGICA
The experiment is described as follows: Selectivity interaction (KinomeScan (DiscoverX)) EUB0001049a ULK1. As to conditions: at 1 µM.

Experiment [7] addresses T2, Mitogen-activated protein kinase kinase kinase 13 (Homo sapiens) (UniProt O43283).
T2 sequence (whole entry): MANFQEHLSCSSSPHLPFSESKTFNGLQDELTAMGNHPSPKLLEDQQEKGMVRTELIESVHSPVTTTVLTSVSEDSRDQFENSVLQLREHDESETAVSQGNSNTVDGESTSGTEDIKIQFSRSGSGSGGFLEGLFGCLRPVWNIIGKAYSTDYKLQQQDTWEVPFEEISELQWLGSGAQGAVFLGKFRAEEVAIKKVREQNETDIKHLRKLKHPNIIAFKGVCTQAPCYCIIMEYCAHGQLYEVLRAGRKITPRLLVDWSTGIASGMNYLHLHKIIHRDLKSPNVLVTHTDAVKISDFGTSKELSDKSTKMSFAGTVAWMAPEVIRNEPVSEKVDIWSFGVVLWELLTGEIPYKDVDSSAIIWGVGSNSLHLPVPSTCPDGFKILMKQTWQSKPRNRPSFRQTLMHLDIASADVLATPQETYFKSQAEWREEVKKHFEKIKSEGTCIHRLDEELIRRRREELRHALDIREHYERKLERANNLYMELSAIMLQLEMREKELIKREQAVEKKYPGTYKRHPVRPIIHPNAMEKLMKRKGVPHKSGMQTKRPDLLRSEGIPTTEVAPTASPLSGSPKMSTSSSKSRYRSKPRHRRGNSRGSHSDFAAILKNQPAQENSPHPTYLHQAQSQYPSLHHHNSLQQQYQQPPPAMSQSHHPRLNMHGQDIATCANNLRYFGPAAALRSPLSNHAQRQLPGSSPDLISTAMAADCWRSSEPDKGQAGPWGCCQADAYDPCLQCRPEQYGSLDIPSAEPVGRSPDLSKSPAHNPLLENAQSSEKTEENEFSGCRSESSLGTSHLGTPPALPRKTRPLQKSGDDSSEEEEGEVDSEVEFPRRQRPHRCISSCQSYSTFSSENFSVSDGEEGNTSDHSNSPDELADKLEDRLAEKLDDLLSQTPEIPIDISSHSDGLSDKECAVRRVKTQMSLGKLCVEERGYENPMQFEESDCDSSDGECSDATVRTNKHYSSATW
In words: Selectivity interaction (KinomeScan (DiscoverX)) EUB0000045b MAP3K13.

Chain of Cyclin-dependent kinase 3 (Homo sapiens) (Q00526 whole entry, looked up): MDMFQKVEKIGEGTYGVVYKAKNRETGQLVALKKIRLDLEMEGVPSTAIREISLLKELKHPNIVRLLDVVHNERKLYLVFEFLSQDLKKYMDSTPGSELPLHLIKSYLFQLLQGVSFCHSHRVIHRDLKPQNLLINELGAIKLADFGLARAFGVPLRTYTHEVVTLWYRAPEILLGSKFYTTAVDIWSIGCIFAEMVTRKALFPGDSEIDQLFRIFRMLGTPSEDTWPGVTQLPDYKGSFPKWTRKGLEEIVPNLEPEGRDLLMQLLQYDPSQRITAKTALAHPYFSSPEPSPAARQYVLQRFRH

Regarding `CNC(=O)Nc1ccc(-c2nc(N3CC4CCC(C3)O4)c3cnn(C4CCC5(CC4)OCCO5)c3n2)cc1`, the % of control was 99% in experiment [1] and 87% in experiment [2].

In the case of `N#Cc1cccc(-c2c[nH]c3ncnc(N4CCOCC4)c23)c1`, in experiment [3], the % of inhibition is -5%.

With `CC[C@@H]1[C@H](F)C(=O)N[C@@H]1COc1nccc2cc(C(N)=O)c(OC)cc12` [ZIMLOVISERTIB], the figures for the % of inhibition (in experiment [4]; on Misshapen-like kinase 1) were -7.2% and 18.8%, respectively.

For `Cc1cnc(Nc2ccc(F)cc2Cl)nc1-c1c[nH]c(C(=O)N[C@H](CO)c2cccc(Cl)c2)c1`, in experiment [5], the % of inhibition came out at 3%.

On to `COc1cc(Nc2nc(C)cc(-c3cnn4nc(OC)ccc34)n2)cc(C(F)(F)F)c1`, for which the % of control in experiment [6] was 86%.

With `C=CC(=O)Nc1cc(-n2c(=O)ccc3cnc4ccc(-c5ccc(NS(C)(=O)=O)cc5)cc4c32)ccc1C`, the % of control in experiment [7] (at 1 µM) and in experiment [7] (at 10 µM) was 100% throughout.
